Legend:
Test in all cases: relative viability (nuclei count vs DMSO), 5 days (fraction); higher = more cells survive
201T = test system: 201T
Procedure, shortened: (§1)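 Relative viability was taken as the ratio of nuclei in treated wells to nuclei in vehicle wells. Lung cancer cell lines in 1536-well plates received compounds by pin tool one day after seeding, either one drug alone or a fixed anchor-drug dose plus five library-drug doses (not always all listed) in √10 steps. Nuclei were counted on 4× images after 5 days of treatment, and values are medians of duplicate plates.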

BEN = test system: BEN
Procedure, shortened: as §1

COR-L 105 = test system: COR-L 105
Procedure, shortened: as §1

EMC-BAC-2 = test system: EMC-BAC-2
Procedure, shortened: as §1

H3255 = test system: H3255
Procedure, shortened: as §1

HARA = test system: HARA
Procedure, shortened: as §1

HCC-78 = test system: HCC-78
Procedure, shortened: as §1

HOP-62 = test system: HOP-62
Procedure, shortened: as §1

LC-2-ad = test system: LC-2-ad
Procedure, shortened: as §1

LOU-NH91 = test system: LOU-NH91
Procedure, shortened: as §1

LU99A = test system: LU99A
Procedure, shortened: as §1

LXF-289 = test system: LXF-289
Procedure, shortened: as §1

NCI-H1395 = test system: NCI-H1395
Procedure, shortened: as §1

NCI-H1563 = test system: NCI-H1563
Procedure, shortened: as §1

NCI-H1993 = test system: NCI-H1993
Procedure, shortened: as §1

NCI-H2087 = test system: NCI-H2087
Procedure, shortened: as §1

NCI-H2126 = test system: NCI-H2126
Procedure, shortened: as §1

NCI-H2170 = test system: NCI-H2170
Procedure, shortened: as §1

NCI-H650 = test system: NCI-H650
Procedure, shortened: as §1

RERF-LC-KJ = test system: RERF-LC-KJ
Procedure, shortened: as §1

SK-MES-1 = test system: SK-MES-1
Procedure, shortened: as §1

SW 900 = test system: SW 900
Procedure, shortened: as §1

UMC-11 = test system: UMC-11
Procedure, shortened: as §1

CN1CCN(CCOc2cc(OC3CCOCC3)c3c(Nc4c(Cl)ccc5c4OCO5)ncnc3c2)CC1 [Saracatinib] + N=C(N)NC(=N)NCCc1ccccc1 [Phenformin] (partner 250 µM)
relative viability (201T; first compound 0.02 µM): 0.391
relative viability (201T; first compound 0.2 µM): 0.415
relative viability (201T; first compound 0.6325 µM): 0.422
relative viability (201T; first compound 2 µM): 0.369
relative viability (BEN; first compound 0.02 µM): 0.292
relative viability (BEN; first compound 0.6325 µM): 0.253
relative viability (BEN; first compound 2 µM): 0.209
relative viability (COR-L 105; first compound 0.02 µM): 0.586
relative viability (COR-L 105; first compound 0.2 µM): 0.532
relative viability (COR-L 105; first compound 0.6325 µM): 0.438
relative viability (COR-L 105; first compound 2 µM): 0.256
relative viability (EMC-BAC-2; first compound 0.02 µM): 0.521
relative viability (EMC-BAC-2; first compound 0.2 µM): 0.432
relative viability (EMC-BAC-2; first compound 0.6325 µM): 0.418
relative viability (EMC-BAC-2; first compound 2 µM): 0.35
relative viability (H3255; first compound 0.02 µM): 0.354
relative viability (H3255; first compound 0.2 µM): 0.33
relative viability (H3255; first compound 0.6325 µM): 0.254
relative viability (H3255; first compound 2 µM): 0.251
relative viability (HARA; first compound 0.02 µM): 0.54
relative viability (HARA; first compound 0.2 µM): 0.279
relative viability (HARA; first compound 0.6325 µM): 0.496
relative viability (HARA; first compound 2 µM): 0.24
relative viability (HCC-78; first compound 0.02 µM): 0.704
relative viability (HCC-78; first compound 0.6325 µM): 0.772
relative viability (HCC-78; first compound 2 µM): 0.554
relative viability (HOP-62; first compound 0.02 µM): 0.661
relative viability (HOP-62; first compound 0.2 µM): 0.629
relative viability (HOP-62; first compound 0.6325 µM): 0.593
relative viability (HOP-62; first compound 2 µM): 0.623
relative viability (LC-2-ad; first compound 0.02 µM): 0.588
relative viability (LC-2-ad; first compound 0.2 µM): 0.554
relative viability (LC-2-ad; first compound 0.6325 µM): 0.652
relative viability (LC-2-ad; first compound 2 µM): 0.546
relative viability (LOU-NH91; first compound 0.02 µM): 0.648
relative viability (LOU-NH91; first compound 0.2 µM): 0.47
relative viability (LOU-NH91; first compound 0.6325 µM): 0.553
relative viability (LOU-NH91; first compound 2 µM): 0.403
relative viability (LU99A; first compound 0.02 µM): 0.938
relative viability (LU99A; first compound 0.2 µM): 0.617
relative viability (LU99A; first compound 0.6325 µM): 0.879
relative viability (LU99A; first compound 2 µM): 0.707
relative viability (LXF-289; first compound 0.02 µM): 0.546
relative viability (LXF-289; first compound 0.2 µM): 0.486
relative viability (LXF-289; first compound 0.6325 µM): 0.506
relative viability (LXF-289; first compound 2 µM): 0.458
relative viability (NCI-H1395; first compound 0.02 µM): 0.434
relative viability (NCI-H1395; first compound 0.2 µM): 0.455
relative viability (NCI-H1395; first compound 0.6325 µM): 0.474
relative viability (NCI-H1395; first compound 2 µM): 0.348
relative viability (NCI-H1563; first compound 0.02 µM): 0.615
relative viability (NCI-H1563; first compound 0.2 µM): 0.63
relative viability (NCI-H1563; first compound 0.6325 µM): 0.603
relative viability (NCI-H1563; first compound 2 µM): 0.572
relative viability (NCI-H1993; first compound 0.02 µM): 0.524
relative viability (NCI-H1993; first compound 0.2 µM): 0.529
relative viability (NCI-H1993; first compound 0.6325 µM): 0.512
relative viability (NCI-H1993; first compound 2 µM): 0.555
relative viability (NCI-H2087; first compound 0.02 µM): 0.484
relative viability (NCI-H2087; first compound 0.2 µM): 0.39
relative viability (NCI-H2087; first compound 0.6325 µM): 0.468
relative viability (NCI-H2087; first compound 2 µM): 0.355
relative viability (NCI-H2126; first compound 0.02 µM): 0.537
relative viability (NCI-H2126; first compound 0.2 µM): 0.522
relative viability (NCI-H2126; first compound 0.6325 µM): 0.524
relative viability (NCI-H2126; first compound 2 µM): 0.473
relative viability (NCI-H2170; first compound 0.02 µM): 0.396
relative viability (NCI-H2170; first compound 0.2 µM): 0.332
relative viability (NCI-H2170; first compound 0.6325 µM): 0.352
relative viability (NCI-H2170; first compound 2 µM): 0.295
relative viability (NCI-H650; first compound 0.02 µM): 0.465
relative viability (NCI-H650; first compound 0.2 µM): 0.429
relative viability (NCI-H650; first compound 0.6325 µM): 0.495
relative viability (NCI-H650; first compound 2 µM): 0.461
relative viability (RERF-LC-KJ; first compound 0.02 µM): 0.445
relative viability (RERF-LC-KJ; first compound 0.2 µM): 0.401
relative viability (RERF-LC-KJ; first compound 0.6325 µM): 0.313
relative viability (RERF-LC-KJ; first compound 2 µM): 0.361
relative viability (SK-MES-1; first compound 0.02 µM): 0.65
relative viability (SK-MES-1; first compound 0.2 µM): 0.613
relative viability (SK-MES-1; first compound 0.6325 µM): 0.613
relative viability (SK-MES-1; first compound 2 µM): 0.634
relative viability (SW 900; first compound 0.02 µM): 0.756
relative viability (SW 900; first compound 0.2 µM): 0.36
relative viability (SW 900; first compound 0.6325 µM): 0.493
relative viability (SW 900; first compound 2 µM): 0.47
relative viability (UMC-11; first compound 0.02 µM): 0.341
relative viability (UMC-11; first compound 0.6325 µM): 0.32
relative viability (UMC-11; first compound 2 µM): 0.232

Source: the supplement of paper PMC10307832
